Results: article PMC4965013, “Open Source Drug Discovery with the Malaria Box Compound Collection for Neglected Diseases and Beyond” (PLoS Pathogens, 2016)

Key:
[1] = test system: PfCDPK1, PfPK6, PfCK2, PfGSK3, PfCLK1, Pfmap2, PfPK7, PfNek2, PfNek4, FIKK4.2, FIKK10.2, PfCK1, PfPK5; assay: Thermal Shift Assay on recombinant Pf kinases; type: binding, P. falciparum; conditions: 2 µM kinase, 5 molar excess of compound
[2] = test system: P. falciparum M1 aminopeptidase; parameters: method as in ref [23] (a number printed in a supplementary file, which may have a reference list of its own: not looked up in the article's list); conditions: ref [23]; cited from earlier work
[3] = test system: P. falciparum M17 aminopeptidase; parameters: method as in ref [23] (a number printed in a supplementary file, which may have a reference list of its own: not looked up in the article's list); conditions: ref [23]; cited from earlier work
[4] = test system: P. falciparum 3D7 trophozoites; assay: Metabolomic fingerprint profiling LC-MS; type: cell-based, Plasmodium falciparum; parameters: UDP-D-glucose / ADP-D-glucose: unit not given here; conditions: for Acetyllysine / N-acetyl-L-ornithine / N-carbamoyl-L-aspartate / NADPH / dAMP / dCMP / dTDP / dTMP / dTTP / dihydroorotate / orotate / DLH / DLS/SDL/SID / PD / PEE / PVNF / 3-phosphoglycerate / ADP-D-glucose / ATP / CDP / D-sedoheptulose-1/7-phosphate / FAD / GMP / NAD+ / NADP+ / Octoluse Bisphosphate / Pyroglutamic acid / UDP-D-glucose / UDP-D-glucuronate / UDP-N-acetyl-glucosamine / UDP / UMP / UTP / a-ketoglutarate / citrate/isocitrate / cytidine / dATP / dGMP/AMP / fumarate / glucose-1/6-phosphate / glycerate / guanine / guanosine / hypoxanthine / indole / inosine / nicotinate / ornithine / phosphoenolpyruvate / pyruvate / ribose-phosphate / sarcosine/alanine / sn-glycerol-3-phosphate / succinate/methylmalonic acid / uridine / xanthosine: S2 Table Metabolomics; for Acetyllysine: metabolite Acetyllysine; for N-acetyl-L-ornithine: metabolite N-acetyl-L-ornithine; for N-carbamoyl-L-aspartate: metabolite N-carbamoyl-L-aspartate; for NADPH: metabolite NADPH; for dAMP: metabolite dAMP; for dCMP: metabolite dCMP; for dTDP: metabolite dTDP; for dTMP: metabolite dTMP; for dTTP: metabolite dTTP; for dihydroorotate: metabolite dihydroorotate; for orotate: metabolite orotate; for DLH: peptide DLH; for DLS/SDL/SID: peptide DLS/SDL/SID; for PD: peptide PD; for PEE: peptide PEE; for PVNF: peptide PVNF; for 3-phosphoglycerate: metabolite 3-phosphoglycerate; for ADP-D-glucose: metabolite ADP-D-glucose; for ATP: metabolite ATP; for CDP: metabolite CDP; for CDP / D-sedoheptulose-1/7-phosphate / GMP / Octoluse Bisphosphate / UDP / UMP / UTP / citrate/isocitrate / dGMP/AMP / fumarate / glucose-1/6-phosphate / glycerate / guanine / guanosine / inosine / pyruvate / sarcosine/alanine / succinate/methylmalonic acid / uridine / xanthosine: change in metabolite level after compound treatment; for D-sedoheptulose-1/7-phosphate: metabolite D-sedoheptulose-1/7-phosphate; for FAD: metabolite FAD; for GMP: metabolite GMP; for NAD+: metabolite NAD+; for NADP+: metabolite NADP+; for Octoluse Bisphosphate: metabolite Octoluse Bisphosphate; for Pyroglutamic acid: metabolite Pyroglutamic acid; for UDP-D-glucose: metabolite UDP-D-glucose; for UDP-D-glucuronate: metabolite UDP-D-glucuronate; for UDP-N-acetyl-glucosamine: metabolite UDP-N-acetyl-glucosamine; for UDP: metabolite UDP; for UMP: metabolite UMP; for UTP: metabolite UTP; for a-ketoglutarate: metabolite a-ketoglutarate; for citrate/isocitrate: metabolite citrate/isocitrate; for cytidine: metabolite cytidine; for dATP: metabolite dATP; for dGMP/AMP: metabolite dGMP/AMP; for fumarate: metabolite fumarate; for glucose-1/6-phosphate: metabolite glucose-1/6-phosphate; for glycerate: metabolite glycerate; for guanine: metabolite guanine; for guanosine: metabolite guanosine; for hypoxanthine: metabolite hypoxanthine; for indole: metabolite indole; for inosine: metabolite inosine; for 2_3-Diphosphoglyceric acid / 4-phosphopantothenate / 6-phospho-D-gluconate / FMN / IMP / Pyrophosphate / Sedoheptoluse bisphosphate / cyclic-AMP / glutathione disulfide / lactate / myo-inositol: metabolite level change after treatment; for nicotinate: metabolite nicotinate; for ornithine: metabolite ornithine; for phosphoenolpyruvate: metabolite phosphoenolpyruvate; for pyruvate: metabolite pyruvate; for ribose-phosphate: metabolite ribose-phosphate; for sarcosine/alanine: metabolite sarcosine/alanine; for sn-glycerol-3-phosphate: metabolite sn-glycerol-3-phosphate; for succinate/methylmalonic acid: metabolite succinate/methylmalonic acid; for uridine: metabolite uridine; for xanthosine: metabolite xanthosine
[5] = test system: P. falciparum; assay: EC50 listed in S2 Table Metabolomics (used to set the concentration tested); type: cell-based; conditions: Plasmodium falciparum; EC50 used for Factor_XEC50 in metabolomics; read-out: EC50_nM
[6] = test system: Atg8-Atg3; parameters: method as in ref [38] (a number printed in a supplementary file, which may have a reference list of its own: not looked up in the article's list); conditions: ref [38]; cited from earlier work
[7] = test system: T. cruzi Tulahuen; conditions: ref [84]; read-out: Trypanosoma cruzi Tulahuen intracellular amastigotes in MRC5 cell line EC50; cited from earlier work

Structure (SMILES): Cc1cccc(-n2ncc3c(=O)[nH]c(-n4nc(C)cc4NC(=O)c4cc5ccccc5o4)nc32)c1 [MMV403679]
- thermal shift (ΔTm) [1]: approximately 2 °C

Structure (SMILES): COc1cc(-c2nc(-c3ccccc3)c(-c3ccccc3)[nH]2)cc(OC)c1O [MMV020750]
- inhibition of M1 in words [2]: moderate competitive inhibitors
- inhibition of M17 in words [3]: moderate competitive inhibitors

Structure (SMILES): Cc1ccc(Nc2nc(-c3ccccn3)cs2)cc1 [MMV007907]
- Acetyllysine [4]: -0.3916
- N-acetyl-L-ornithine [4]: -0.2705
- N-carbamoyl-L-aspartate [4]: 0.4477
- NADPH [4]: 1.503
- dAMP [4]: -0.05008
- dCMP [4]: -0.3338
- dTDP [4]: -0.4245
- dTMP [4]: -0.5337
- dTTP [4]: 0.04887
- dihydroorotate [4]: 0.6541
- orotate [4]: 0.3803
- DLH [4]: -0.1443
- DLS/SDL/SID [4]: -0.03559
- PD [4]: -0.7075
- PEE [4]: -0.4235
- PVNF [4]: 0.2287
- 3-phosphoglycerate [4]: 0.2283
- ADP-D-glucose [4]: 0.03116
- ATP [4]: 0.08371
- CDP [4]: -0.4596
- D-sedoheptulose-1/7-phosphate [4]: -0.2275
- FAD [4]: 0.1798
- GMP [4]: 0.08425
- NAD+ [4]: 0.05427
- NADP+ [4]: -0.07684
- Octoluse Bisphosphate [4]: -0.09051
- Pyroglutamic acid [4]: 0.2079
- UDP-D-glucose [4]: -0.006173
- UDP-D-glucuronate [4]: 0.1137
- UDP-N-acetyl-glucosamine [4]: 0.001514
- UDP [4]: -0.4364
- UMP [4]: -0.7518
- UTP [4]: 0.01959
- a-ketoglutarate [4]: 0.135
- citrate/isocitrate [4]: 0.264
- cytidine [4]: 0.5859
- dATP [4]: -0.01819
- dGMP/AMP [4]: -0.2513
- fumarate [4]: -0.275
- glucose-1/6-phosphate [4]: -0.0724
- glycerate [4]: 0.1576
- guanine [4]: 0.3676
- guanosine [4]: 0.05893
- hypoxanthine [4]: 0.3977
- indole [4]: 0.3227
- inosine [4]: 0.344
- 2_3-Diphosphoglyceric acid [4]: -0.02223
- 4-phosphopantothenate [4]: 0.1153
- 6-phospho-D-gluconate [4]: 0.05128
- FMN [4]: 0.1654
- IMP [4]: -0.204
- Pyrophosphate [4]: 0.1304
- Sedoheptoluse bisphosphate [4]: -0.1099
- cyclic-AMP [4]: 0.1921
- glutathione disulfide [4]: -0.02789
- lactate [4]: 0.5292
- myo-inositol [4]: 0.004909
- nicotinate [4]: 0.3366
- ornithine [4]: 0.4059
- phosphoenolpyruvate [4]: 0.0562
- pyruvate [4]: 0.2612
- ribose-phosphate [4]: -0.06101
- sarcosine/alanine [4]: 0.3466
- sn-glycerol-3-phosphate [4]: 0.2394
- succinate/methylmalonic acid [4]: 0.03717
- uridine [4]: 0.4023
- xanthosine [4]: -0.2403
- EC50 [5]: 0.35 µM
- PPI inhibitors of Atg8-Atg3 interaction [6]: PPI inhibitors
- EC50 [7]: 0.281 µM

Structure (SMILES): O=C(Nc1ccc(Cl)c(Cl)c1)Nc1ccc(Cl)c(Cl)c1 [MMV665852]
- thermal shift (ΔTm) [1]: approximately 2 °C

Structure (SMILES): c1ccc(Cn2c(N=Nc3c(Nc4ccccc4)ccc4ccccc34)nc3ccccc32)cc1 [MMV666023]
- Acetyllysine [4]: 0.5853
- N-acetyl-L-ornithine [4]: 0.306
- N-carbamoyl-L-aspartate [4]: 1.052
- NADPH [4]: -0.03386
- dAMP [4]: 0.6013
- dCMP [4]: -0.4205
- dTDP [4]: 0.3507
- dTMP [4]: 0.8714
- dTTP [4]: -0.2342
- dihydroorotate [4]: 1.31
- orotate [4]: -0.6227
- DLH [4]: -0.403
- DLS/SDL/SID [4]: -0.4178
- PD [4]: 0.5075
- PEE [4]: 0.08891
- PVNF [4]: -0.6731
- 3-phosphoglycerate [4]: 0.03204
- ADP-D-glucose [4]: -0.0135
- ATP [4]: -0.2499
- CDP [4]: 0.1136
- D-sedoheptulose-1/7-phosphate [4]: 0.2353
- FAD [4]: 0.06401
- GMP [4]: -0.6431
- NAD+ [4]: 0.6404
- NADP+ [4]: -0.009365
- Octoluse Bisphosphate [4]: -0.1419
- Pyroglutamic acid [4]: -0.07348
- UDP-D-glucose [4]: 0.05216
- UDP-D-glucuronate [4]: -0.02666
- UDP-N-acetyl-glucosamine [4]: 0.05509
- UDP [4]: 0.01697
- UMP [4]: -0.4292
- UTP [4]: -0.424
- a-ketoglutarate [4]: -0.06383
- citrate/isocitrate [4]: 0.04119
- cytidine [4]: 0.02473
- dATP [4]: 0.1105
- dGMP/AMP [4]: 0.2165
- fumarate [4]: 0.9246
- glucose-1/6-phosphate [4]: -0.4138
- glycerate [4]: 0.03697
- guanine [4]: -0.03399
- guanosine [4]: -0.2347
- hypoxanthine [4]: -0.04929
- indole [4]: 0.02614
- inosine [4]: -0.0248
- 2_3-Diphosphoglyceric acid [4]: 0.0759
- 4-phosphopantothenate [4]: 0.08574
- 6-phospho-D-gluconate [4]: 0.115
- FMN [4]: -0.1537
- IMP [4]: 0.4441
- Pyrophosphate [4]: 0.2082
- Sedoheptoluse bisphosphate [4]: 0.1996
- cyclic-AMP [4]: 0.01699
- glutathione disulfide [4]: 0.1273
- lactate [4]: -0.7178
- myo-inositol [4]: -0.07069
- nicotinate [4]: 0.08369
- ornithine [4]: 0.4536
- phosphoenolpyruvate [4]: -0.0645
- pyruvate [4]: -0.159
- ribose-phosphate [4]: -0.0332
- sarcosine/alanine [4]: -0.02978
- sn-glycerol-3-phosphate [4]: -0.2072
- succinate/methylmalonic acid [4]: 0.009689
- uridine [4]: -0.07701
- xanthosine [4]: -0.07995
- EC50 [5]: 0.0368 µM
- inhibition of M1 in words [2]: moderate competitive inhibitors
- inhibition of M17 in words [3]: moderate competitive inhibitors
